Our source for the TGI values is PubChem BioAssay (NCI).

Some test systems named below: NCI-H522 lung; OVCAR-8 ovarian; NCI-H23 lung; SK-OV-3 ovarian; NCI-H460 lung; HL-60(TB) leukemia; SF-539 CNS; MDA-MB-435; HCT-15 colon; TK-10 renal.
What all share (assay): NCI anticancer screen, dose series, 48 h

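Following 48 hours of exposure in 96-well plates, responses at five concentrations were used to interpolate endpoints linearly. At the TGI there is no net growth.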 Where only a bound is given, the exact number is not on record here.

On to `O=C(O)c1n[nH]nc1Cl`, for which the TGI in the assay on NCI-H522 lung, in the assay with OVCAR-8 ovarian, with NCI-H23 lung, in the assay with SK-OV-3 ovarian, in the assay on NCI-H460 lung and with HL-60(TB) leukemia was over 100 µM in each case. Further, the TGI in the assay with SF-539 CNS, in the assay with MDA-MB-435, with HCT-15 colon and with TK-10 renal was over 100 µM throughout.

On to `CC(=O)n1nc(-c2ccccc2)n(/N=C/c2ccc([N+](=O)[O-])cc2)c1=O`, for which the TGI in the assay on NCI-H522 lung, in the assay on OVCAR-8 ovarian, in the assay on NCI-H23 lung, in the assay on SK-OV-3 ovarian, in the assay on NCI-H460 lung and in the assay on HL-60(TB) leukemia was over 100 µM each time. Further, the TGI in the assay with SF-539 CNS, with MDA-MB-435, in the assay on HCT-15 colon and with TK-10 renal was over 100 µM each time.

Turning to `O=[N+]([O-])c1cc2oc(COc3ccccc3)nc2cc1Cl`, the TGI is 46.3 µM with NCI-H522 lung; over 100 µM with OVCAR-8 ovarian; 40.8 µM with NCI-H23 lung; 59.9 µM with SK-OV-3 ovarian; 53.6 µM in the assay on NCI-H460 lung; over 100 µM with HL-60(TB) leukemia. In addition, the TGI is 45.8 µM in the assay on SF-539 CNS, 52.4 µM in the assay on MDA-MB-435, 43.3 µM with HCT-15 colon and over 100 µM with TK-10 renal.

As for `CC(C)(C)c1cc(C(P(=O)(c2ccccc2)c2ccccc2)P(=O)(c2ccccc2)c2ccccc2)cc(C(C)(C)C)c1O`, the TGI in the assay on NCI-H522 lung is 5.26 µM; in the assay with OVCAR-8 ovarian it was 8.95 µM; with NCI-H23 lung, 7.3 µM; in the assay with SK-OV-3 ovarian, over 10 µM; in the assay on NCI-H460 lung, 4.44 µM; with HL-60(TB) leukemia, over 8.2 µM. Further, the TGI in the assay with SF-539 CNS was found to be 3.88 µM; with MDA-MB-435 it was 4.39 µM; in the assay with HCT-15 colon, 6.96 µM; in the assay with TK-10 renal it was 9.87 µM.

On to `Oc1ccc2ccccc2c1/C=C/c1ccc2c(Br)cc(Br)c(O)c2n1`, for which the TGI in the assay with NCI-H522 lung was 14.3 µM; in the assay with OVCAR-8 ovarian, 20.1 µM; in the assay with NCI-H23 lung, 24.7 µM; in the assay on SK-OV-3 ovarian, 28.9 µM; in the assay with NCI-H460 lung, 16.2 µM; with HL-60(TB) leukemia, 12.3 µM. Besides, the TGI in the assay with SF-539 CNS amounted to 13.6 µM; in the assay on MDA-MB-435, 36.2 µM; with HCT-15 colon, 17.5 µM; with TK-10 renal, 23.2 µM.

Regarding `COc1cc(/C=C2\CCC(C)C3C2=NN(C(C)=O)C3c2cc(OC)c(OC)c(OC)c2)cc(OC)c1OC` (centres undefined), the TGI is 22.2 µM with NCI-H522 lung; over 100 µM in the assay with OVCAR-8 ovarian; over 100 µM with NCI-H23 lung; over 100 µM with SK-OV-3 ovarian; over 100 µM with NCI-H460 lung; over 100 µM in the assay on HL-60(TB) leukemia. In addition, the TGI in the assay on SF-539 CNS, with MDA-MB-435, in the assay on HCT-15 colon and in the assay on TK-10 renal was over 100 µM in each case.

For `C[N+](C)([O-])CCC=C1c2ccccc2CCc2ccccc21`, the TGI is 34.4 µM with NCI-H522 lung; 52.6 µM in the assay with OVCAR-8 ovarian; over 100 µM in the assay on NCI-H23 lung; over 100 µM in the assay with SK-OV-3 ovarian; over 100 µM with NCI-H460 lung; 30.6 µM with HL-60(TB) leukemia. The TGI in the assay on SF-539 CNS is over 100 µM; with MDA-MB-435, 38.1 µM; in the assay on HCT-15 colon it was 95 µM; in the assay on TK-10 renal it was over 100 µM.

With `CCC(C)(C)/C(CC(O)(C(F)(F)F)C(F)(F)F)=N\O`, the TGI in the assay on NCI-H522 lung, with NCI-H23 lung, in the assay with SK-OV-3 ovarian, in the assay with NCI-H460 lung, with HL-60(TB) leukemia and in the assay with SF-539 CNS was over 100 µM throughout. Also, the TGI with MDA-MB-435, with HCT-15 colon and in the assay on TK-10 renal was over 100 µM in each case.

As to `Cc1ccc(S(=O)(=O)N/N=C/C(=C/c2ccc(Cl)cc2)CC(/C=N/NS(=O)(=O)c2ccc(C)cc2)=C\c2ccc(Cl)cc2)cc1`, the TGI in the assay with NCI-H522 lung was 16.1 µM; in the assay on OVCAR-8 ovarian it was 12.8 µM; with NCI-H23 lung, 26.8 µM; in the assay with SK-OV-3 ovarian it was over 100 µM; in the assay with NCI-H460 lung, 30.3 µM; in the assay with HL-60(TB) leukemia, 8.15 µM. Moreover, the TGI in the assay on SF-539 CNS is 34.2 µM; in the assay on MDA-MB-435, 14.2 µM; in the assay with HCT-15 colon it was 12.3 µM; with TK-10 renal, 45.6 µM.

In the case of `CN(c1ccc(Cl)cc1)S(=O)(=O)c1ccc([N+](=O)[O-])cc1`, the TGI in the assay with NCI-H522 lung, in the assay with OVCAR-8 ovarian, in the assay on NCI-H23 lung, in the assay with SK-OV-3 ovarian, in the assay with NCI-H460 lung and with HL-60(TB) leukemia was over 100 µM each time. The TGI in the assay on SF-539 CNS, in the assay with MDA-MB-435, in the assay with HCT-15 colon and in the assay on TK-10 renal was over 100 µM each time.

Consider `N#CSC#Cc1ccc(C#CSC#N)cc1`, for which the TGI in the assay with NCI-H522 lung was 29 µM; with OVCAR-8 ovarian it was 42.6 µM; in the assay with NCI-H23 lung it was 35.5 µM; with SK-OV-3 ovarian it was 43 µM; in the assay on NCI-H460 lung, 38.9 µM; with HL-60(TB) leukemia, over 100 µM. Also, the TGI in the assay with SF-539 CNS turned out to be 43.3 µM; with MDA-MB-435, 45.4 µM; in the assay on HCT-15 colon, 38 µM; in the assay with TK-10 renal it was 31.3 µM.

For `CC(=O)NC1C(OCc2ccccc2)OC(CO)C(O)C1OC(C)C(=O)NC(C)C(=O)NC(CCC(=O)NCCCNc1c2ccccc2nc2cccc([N+](=O)[O-])c12)C(N)=O` (centres undefined), the TGI is 4.05 µM in the assay with NCI-H522 lung; 9.07 µM in the assay on OVCAR-8 ovarian; 11.8 µM with NCI-H23 lung; 34.7 µM in the assay with SK-OV-3 ovarian; 1.96 µM in the assay on NCI-H460 lung; over 100 µM in the assay on HL-60(TB) leukemia. Moreover, the TGI with SF-539 CNS worked out at 19.3 µM; in the assay with MDA-MB-435, 2.65 µM; with HCT-15 colon it was 7.3 µM; in the assay on TK-10 renal, 9.97 µM.

As for `C=C1C[C@@H]2O[C@H]3[C@H]4[C@@H](C[C@@H](C)[C@@H](OC(C)=O)[C@H]42)[C@@H](C)CO[C@@]3(C)[C@H](OC(C)=O)C[C@H]1O`, the TGI in the assay on NCI-H522 lung was over 100 µM; in the assay on OVCAR-8 ovarian it was over 100 µM; with NCI-H23 lung it was over 100 µM; in the assay on SK-OV-3 ovarian, over 100 µM; in the assay on NCI-H460 lung, over 100 µM; in the assay on HL-60(TB) leukemia, 36.8 µM. Moreover, the TGI in the assay with SF-539 CNS, in the assay with MDA-MB-435, in the assay on HCT-15 colon and in the assay with TK-10 renal was over 100 µM throughout.
